The text below walks through data of patent US10294243B2, “Bicyclic compounds as pesticides” (BAYER CROPSCIENCE AKTIENGESELLSCHAFT, priority 2014, dated 2019).

Series [1] concerns Myzus persicae. The experiment in a line: Myzus persicae - spray test (Chinese cabbage leaf discs). The note with it: after 6 days; for pest or weed control at 500 g/ha: Myzus persicae, foliar, 144 h, read-out: efficacy (aphids killed). The format is in vivo. How it is done: Myzus persicae—Spray Test
Solvent: 78 parts by weight of acetone • • 1.5 parts by weight of dimethylformamide
(§1) Emulsifier: alkylaryl polyglycol ether
To produce further test concentrations, the preparation is diluted with emulsifier-containing water.
After 6 days, the efficacy in % is determined 100% means that all the aphids have been killed; 0% means that none of the aphids have been killed.

The nature of series [2]: log P by HPLC on reversed-phase C18 columns (OECD Guideline 117); method [a] acidic pH 2.7, method [b] neutral pH 7.8. Format: physicochemical. The conditions noted are these: for chromatographic logP: reversed-phase C18 HPLC column.
The subject of series [3] is Phaedon cochleariae. Kind of series: Phaedon cochleariae - spray test. The conditions noted are these: application rate 500 g/ha, Chinese cabbage leaf discs, after 7 days. The format is in vivo.
Source text: Phaedon cochleariae—Spray Test
as §1

Setting [4] is: HPLC reversed-phase C18, method [a] acidic pH 2.7, read-out: logP[a].
[5] abbreviates: HPLC reversed-phase C18, method [b] neutral pH 7.8, read-out: logP[b].
Where [6] appears, read: HPLC reversed-phase C18, method [a] acidic pH 2.7.
Where [7] appears, read: HPLC reversed-phase C18, method [b] neutral pH 7.8.

Structures are written as SMILES. Where two headings read alike, the source gives them in different places.

`Cc1cc(F)c(-n2cnc3nc(-c4cccnc4)sc3c2=O)cc1[S+]([O-])CC(=O)N(C)C` (stereo not drawn) [Compound 55, 2-({4-Fluoro-2-methyl-5-[7-oxo-2-(pyridin-3-yl)[1,3]thiazolo[4,5-d]pyrimidin-6(7H)-yl]phenyl}sulphinyl)-N,N-dimethylacetamide]: in series [1] (application rate 500 g/ha), the pest or weed control at 500 g/ha amounted to 90%. The chromatographic logP in series [2] (setting [4]) and in series [2] (setting [5]) was 1.38 in each case.
For `O=c1c2sc(-c3cccnc3)nc2ncn1-c1cc(SCC(F)(F)F)c(Cl)cc1Cl` [Compound 51], in series [1] (application rate 500 g/ha), the “efficacy (aphids killed)” value turned out to be 100%. The “logP[a]” value in series [2] (setting [6]) worked out at 3.25. Besides, the “logP[b]” value in series [2] (setting [7]) is 3.17.
The like results for `Cc1cc(SC(F)(F)F)ccc1-n1cnc2nc(-c3cccnc3)sc2c1=O` [Compound 64] were, in that order, 100%, 2.91 and 2.89.
As to `Cc1cc(C)c([S+]([O-])CC(F)(F)F)cc1-n1cnc2nc(-c3cncc(F)c3)sc2c1=O` (stereo not drawn) [Compound 72], the “efficacy (aphids killed)” value in series [1] (application rate 500 g/ha) is listed as 90%. Also, the “logP[a]” value in series [2] (setting [6]) was 2.35. For the same compound, the “logP[b]” value in series [2] (setting [7]) turned out to be 2.29.
For `O=c1c2sc(-c3cccnc3)nc2ncn1-c1ccc(Cl)cc1` [Compound 43] the same measures were 100%, 2.05 and 2.06.
Turning to `Cc1cc(C)c([S+]([O-])CC(F)(F)F)cc1-n1cnc2nc(-c3cccnc3)sc2c1=O` (stereo not drawn) [Compound 50, 6-{2,4-Dimethyl-5-[(2,2,2-trifluoroethyl)sulphinyl]phenyl}-2-(pyridin-3-yl)[1,3]thiazolo[4,5-d]pyrimidin-7(6H)-one], in series [1] (application rate 500 g/ha), the pest or weed control at 500 g/ha is 100%. For the same compound, the values for the chromatographic logP in series [2] (setting [4]) and in series [2] (setting [5]) were 2.06 and 2.01, respectively.
The like results for `Cc1cc(C)c(-n2cnc3nc(-c4cccnc4)sc3c2=O)cc1SCC(F)(F)F` [Compound 49, 6-{2,4-Dimethyl-5-[(2,2,2-trifluoroethyl)sulphanyl]phenyl}-2-(pyridin-3-yl)[1,3]thiazolo[4,5-d]pyrimidin-7(6H)-one] were, in that order, 100%, 3.04 and 2.98.
For `CC(C)Cn1cnc2nc(-c3cccnc3)sc2c1=O` [Compound 3, 6-Isobutyl-2-(pyridin-3-yl)[1,3]thiazolo[4,5-d]pyrimidin-7(6H)-one], the pest or weed control at 500 g/ha in series [1] (application rate 500 g/ha) turned out to be 100%. Besides, in series [2] (setting [4]), the chromatographic logP is 1.7.
On to `CC(C)C[S+]([O-])c1cccc(-n2cnc3nc(-c4cccnc4)sc3c2=O)c1` (stereo not drawn) [Compound 27], for which the “efficacy (aphids killed)” value in series [1] (application rate 500 g/ha) is 90%. Besides, the “logP[a]” value in series [2] (setting [6]) was 1.73. In addition, the “logP[b]” value in series [2] (setting [7]) is 1.68.
The like results for `O=c1c2sc(-c3cccnc3)nc2ncn1-c1ccc(F)c([S+]([O-])C(F)(F)F)c1` (stereo not drawn) [Compound 18] were, in that order, 90%, 2.01 and 1.95.
`O=c1c2sc(-c3cccnc3)nc2ncn1C1CC1` [Compound 2]: the “efficacy (aphids killed)” value in series [1] (application rate 500 g/ha) worked out at 100%. Further, in series [2] (setting [7]), the “logP[b]” value amounted to 1.05.
With `O=c1c2sc(-c3cccnc3)nc2ncn1-c1ccc(SC(F)(F)F)cc1` [Compound 62, 2-(Pyridin-3-yl)-6-{4-[(trifluoromethyl)sulphanyl]phenyl}[1,3]thiazolo[4,5-d]pyrimidin-7(6H)-one], the pest or weed control at 500 g/ha in series [1] (application rate 500 g/ha) came out at 90%. Moreover, the “efficacy (beetle larvae killed)” value in series [3] was determined as 100%. The chromatographic logP worked out at 2.71 in series [2] (setting [4]) and 2.69 in series [2] (setting [5]).
With `CC[S+]([O-])c1ccccc1-n1cnc2nc(-c3cccnc3)sc2c1=O` (stereo not drawn) [Compound 67], the “efficacy (aphids killed)” value in series [1] (application rate 500 g/ha) was determined as 90%. The “logP[a]” value in series [2] (setting [6]) came out at 1.28. In series [2] (setting [7]), the “logP[b]” value is on record as 1.29.
As for `Cc1cc(F)c(-n2cnc3nc(-c4cncc(F)c4)sc3c2=O)cc1SCC(F)(F)F` [Compound 73, 6-{2-Fluoro-4-methyl-5-[(2,2,2-trifluoroethyl)sulphanyl]phenyl}-2-(5-fluoropyridin-3-yl)[1,3]thiazolo[4,5-d]pyrimidin-7(6H)-one], in series [1] (application rate 500 g/ha), the pest or weed control at 500 g/ha is 90%. The chromatographic logP in series [2] (setting [4]) came to 3.36; in series [2] (setting [5]), 3.25.
In the case of `O=c1c2sc(-c3cccnc3)nc2ncn1CC(F)(F)F` [Compound 5, 2-(Pyridin-3-yl)-6-(2,2,2-trifluoroethyl)[1,3]thiazolo[4,5-d]pyrimidin-7(6H)-one], the pest or weed control at 500 g/ha in series [1] (application rate 500 g/ha) was 100%. Also, the chromatographic logP in series [2] (setting [4]) is 1.54.
As for `Cc1cc(F)c(-n2cnc3nc(-c4ccc[n+]([O-])c4)sc3c2=O)cc1[S+]([O-])CC(F)(F)F` (stereo not drawn) [Compound 23, 6-{2-Fluoro-4-methyl-5-[(2,2,2-trifluoroethyl)sulphinyl]phenyl}-2-(1-oxidopyridin-3-yl)[1,3]thiazolo[4,5-d]pyrimidin-7(6H)-one], the pest or weed control at 500 g/ha in series [1] (application rate 500 g/ha) was determined as 100%. Also, the chromatographic logP in series [2] (setting [4]) came out at 1.49; in series [2] (setting [5]) it was 1.45.
On to `CC[S+]([O-])c1cccc(-n2cnc3nc(-c4cccnc4)sc3c2=O)c1` (stereo not drawn) [Compound 20], for which, in series [1] (application rate 500 g/ha), the “efficacy (aphids killed)” value is 100%. The “logP[a]” value in series [2] (setting [6]) is 1.24. For the same compound, the “logP[b]” value in series [2] (setting [7]) is given as 1.26.
As for `Cc1ccc(-n2cnc3nc(-c4cccnc4)sc3c2=O)cc1[S+]([O-])CC(F)(F)F` (stereo not drawn) [Compound 48], the “efficacy (aphids killed)” value in series [1] (application rate 500 g/ha) came to 100%. In series [2] (setting [6]), the “logP[a]” value stood at 1.86. Further, the “logP[b]” value in series [2] (setting [7]) was determined as 1.85.
Regarding `Cc1cc(F)c(-n2c(C)nc3nc(-c4cccnc4)sc3c2=O)cc1SCC(F)(F)F` [Compound 56, 6-{2-Fluoro-4-methyl-5-[(2,2,2-trifluoroethyl)sulphanyl]phenyl}-5-methyl-2-(pyridin-3-yl)[1,3]thiazolo[4,5-d]pyrimidin-7(6H)-one], the pest or weed control at 500 g/ha in series [1] (application rate 500 g/ha) was 90%. Moreover, the chromatographic logP in series [2] (setting [4]) was 3.25; in series [2] (setting [5]) it was 3.
Consider `O=c1c2sc(-c3cccnc3)nc2ncn1-c1cccc(C(F)(F)F)c1` [Compound 9], for which the “efficacy (aphids killed)” value in series [1] (application rate 500 g/ha) came to 100%. In addition, the “logP[a]” value in series [2] (setting [6]) was found to be 2.26. In addition, the “logP[b]” value in series [2] (setting [7]) is recorded as 2.23.
For `Cc1ccc(-n2cnc3nc(-c4cccnc4)sc3c2=O)cc1[S+](C)[O-]` (stereo not drawn) [Compound 16] the same measures were 90%, 1.25 and 1.26.
For `CC(c1ncnn1C)n1cnc2nc(-c3cccnc3)sc2c1=O` (stereo not drawn) [Compound 86] the same measures were 90%, 1.01 and 1.07.
With `Cc1cc(C)c([S+]([O-])CC(F)(F)F)cc1-n1cnc2nc(-c3cncnc3)sc2c1=O` (stereo not drawn) [Compound 77, 6-{2,4-Dimethyl-5-[(2,2,2-trifluoroethyl)sulphinyl]phenyl}-2-(pyrimidin-5-yl)[1,3]thiazolo[4,5-d]pyrimidin-7(6H)-one], the pest or weed control at 500 g/ha in series [1] (application rate 500 g/ha) turned out to be 100%. Also, the chromatographic logP in series [2] (setting [4]) stood at 1.84; in series [2] (setting [5]) it was 1.82.
As for `Cc1cc(F)c(-n2cnc3nc(-c4cncnc4)sc3c2=O)cc1SCC(F)(F)F` [Compound 78], the “efficacy (aphids killed)” value in series [1] (application rate 500 g/ha) came out at 90%. For the same compound, the “logP[a]” value in series [2] (setting [6]) turned out to be 2.73. The “logP[b]” value in series [2] (setting [7]) stood at 2.65.
For the compound `O=c1c2sc(-c3cccnc3)nc2ncn1CC1CC1` [Compound 39, 6-(Cyclopropylmethyl)-2-(pyridin-3-yl)[1,3]thiazolo[4,5-d]pyrimidin-7(6H)-one], the pest or weed control at 500 g/ha in series [1] (application rate 500 g/ha) was 100%. The chromatographic logP in series [2] (setting [4]) stood at 1.53; in series [2] (setting [5]) it was 1.52.
For the compound `Cc1ccc(-n2cnc3nc(-c4cccnc4)sc3c2=O)cc1SCC(F)(F)F` [Compound 47], the “efficacy (aphids killed)” value in series [1] (application rate 500 g/ha) worked out at 90%. Besides, the “logP[a]” value in series [2] (setting [6]) is 2.73. Besides, the “logP[b]” value in series [2] (setting [7]) was 2.75.
`CCSc1cccc(-n2cnc3nc(-c4cccnc4)sc3c2=O)c1` [Compound 19]: the “efficacy (aphids killed)” value in series [1] (application rate 100 g/ha) is listed as 90%. In addition, the “logP[a]” value in series [2] (setting [6]) came out at 2.39. For the same compound, the “logP[b]” value in series [2] (setting [7]) worked out at 2.43.
For `O=c1c2sc(-c3cccnc3)nc2ncn1-c1cc([S+]([O-])CC2CC2)ccc1F` (stereo not drawn) [Compound 45], the “efficacy (aphids killed)” value in series [1] (application rate 500 g/ha) was 100%. For the same compound, the “logP[a]” value in series [2] (setting [6]) is listed as 1.63. In series [2] (setting [7]), the “logP[b]” value is on record as 1.66.
For `CSc1cccc(-n2cnc3nc(-c4cccnc4)sc3c2=O)c1` [Compound 13] the same measures were 90%, 2.09 and 2.08.
Consider `O=c1c2sc(-c3cccnc3)nc2ncn1Cc1ccncc1` [Compound 36], for which the “efficacy (aphids killed)” value in series [1] (application rate 500 g/ha) came to 90%. Further, the “logP[a]” value in series [2] (setting [6]) stood at 0.55.
Consider `Cc1cc(F)c(-n2cnc3nc(-c4cncc(F)c4)sc3c2=O)cc1[S+]([O-])CC(F)(F)F` (stereo not drawn) [Compound 74, 6-{2-Fluoro-4-methyl-5-[(2,2,2-trifluoroethyl)sulphinyl]phenyl}-2-(5-fluoropyridin-3-yl)[1,3]thiazolo[4,5-d]pyrimidin-7(6H)-one], for which the pest or weed control at 500 g/ha in series [1] (application rate 500 g/ha) is 90%. Further, the figures for the chromatographic logP in series [2] (setting [4]) and in series [2] (setting [5]) were 2.34 and 2.26, respectively.
For `Cc1cc(F)c(-n2cnc3nc(-c4cccnc4)sc3c2=O)cc1[S+]([O-])CC(F)(F)F` (stereo not drawn) [Compound 22, 6-{2-Fluoro-4-methyl-5-[(2,2,2-trifluoroethyl)sulphinyl]phenyl}-2-(pyridin-3-yl)[1,3]thiazolo[4,5-d]pyrimidin-7(6H)-one] the same measures were 90%, 2.01 and 1.98.
